Legend:
Experiment in all cases: relative viability vs DMSO control (72 h) (fraction); higher = more viable cells
A204 = tested on: A204
In short: (§1)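 Relative viability was measured with ATPLite and expressed as percent growth, averaged across up to triplicate wells. Sarcoma cell lines had been seeded in 384-well plates to reach 80–90% confluence, dosed after 24 h, and incubated 72 h at 37 °C, 5% CO2. All data were rescaled on a scale where 1 is full and 0 is none.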

HS729 = tested on: HS729
In short: as §1

KHOS-240S = tested on: KHOS-240S
In short: as §1

RD = tested on: RD
In short: as §1

SK-ES-1 = tested on: SK-ES-1
In short: as §1

SW982 = tested on: SW982
In short: as §1

SK-LMS-1 = tested on: SK-LMS-1
In short: as §1

SW872 = tested on: SW872
In short: as §1

SW1353 = tested on: SW1353
In short: as §1

G401 = tested on: G401
In short: as §1

MES-SA = tested on: MES-SA
In short: as §1

VA-ES-BJ = tested on: VA-ES-BJ
In short: as §1

COC(=O)c1ccc2c(c1)NC(=O)/C2=C(\Nc1ccc(N(C)C(=O)CN2CCN(C)CC2)cc1)c1ccccc1 [Nintedanib]
Settings	relative viability
A204, 0.00017 µM	1.04
A204, 0.00051 µM	1.04
A204, 0.00152 µM	1.02
A204, 0.00457 µM	0.997
A204, 0.01372 µM	0.831
A204, 0.04115 µM	0.566
A204, 0.1235 µM	0.434
A204, 0.3704 µM	0.392
A204, 1.111 µM	0.376
A204, 3.333 µM	0.318
A204, 10 µM	0.22
G401, 0.00017 µM	1
G401, 0.00051 µM	0.99
G401, 0.00152 µM	0.992
G401, 0.00457 µM	1.03
G401, 0.01372 µM	0.98
G401, 0.04115 µM	0.987
G401, 0.1235 µM	0.977
G401, 0.3704 µM	0.891
G401, 1.111 µM	0.721
G401, 3.333 µM	0.485
G401, 10 µM	0.0535
HS729, 0.00017 µM	0.981
HS729, 0.00051 µM	1
HS729, 0.00152 µM	1.01
HS729, 0.00457 µM	0.99
HS729, 0.01372 µM	1.04
HS729, 0.04115 µM	0.973
HS729, 0.1235 µM	0.929
HS729, 0.3704 µM	0.863
HS729, 1.111 µM	0.738
HS729, 3.333 µM	0.626
HS729, 10 µM	0.119
KHOS-240S, 0.00017 µM	1.05
KHOS-240S, 0.00051 µM	1.05
KHOS-240S, 0.00152 µM	1.04
KHOS-240S, 0.00457 µM	1.04
KHOS-240S, 0.01372 µM	1.04
KHOS-240S, 0.04115 µM	1.02
KHOS-240S, 0.1235 µM	0.985
KHOS-240S, 0.3704 µM	0.875
KHOS-240S, 1.111 µM	0.702
KHOS-240S, 3.333 µM	0.6
KHOS-240S, 10 µM	0.101
MES-SA, 0.00017 µM	0.933
MES-SA, 0.00051 µM	0.93
MES-SA, 0.00152 µM	0.942
MES-SA, 0.00457 µM	0.928
MES-SA, 0.01372 µM	0.898
MES-SA, 0.04115 µM	0.944
MES-SA, 0.1235 µM	0.934
MES-SA, 0.3704 µM	0.958
MES-SA, 1.111 µM	0.92
MES-SA, 3.333 µM	0.804
MES-SA, 10 µM	0.583
RD, 0.00017 µM	1.03
RD, 0.00051 µM	1.03
RD, 0.00152 µM	0.989
RD, 0.00457 µM	1.01
RD, 0.01372 µM	0.977
RD, 0.04115 µM	0.97
RD, 0.1235 µM	0.96
RD, 0.3704 µM	0.965
RD, 1.111 µM	0.873
RD, 3.333 µM	0.777
RD, 10 µM	0.0216
SK-ES-1, 0.00017 µM	1
SK-ES-1, 0.00051 µM	0.951
SK-ES-1, 0.00152 µM	0.945
SK-ES-1, 0.00457 µM	0.961
SK-ES-1, 0.01372 µM	1.03
SK-ES-1, 0.04115 µM	1.03
SK-ES-1, 0.1235 µM	0.986
SK-ES-1, 0.3704 µM	0.883
SK-ES-1, 1.111 µM	0.571
SK-ES-1, 3.333 µM	0.399
SK-ES-1, 10 µM	0.0168
SK-LMS-1, 0.00017 µM	1.16
SK-LMS-1, 0.00051 µM	1.13
SK-LMS-1, 0.00152 µM	1.13
SK-LMS-1, 0.00457 µM	1.09
SK-LMS-1, 0.01372 µM	1.11
SK-LMS-1, 0.04115 µM	1.08
SK-LMS-1, 0.1235 µM	1.073
SK-LMS-1, 0.3704 µM	1.07
SK-LMS-1, 1.111 µM	1.03
SK-LMS-1, 3.333 µM	0.932
SK-LMS-1, 10 µM	0.145
SW872, 0.00017 µM	1.05
SW872, 0.00051 µM	1.03
SW872, 0.00152 µM	1.02
SW872, 0.00457 µM	1.03
SW872, 0.01372 µM	1.03
SW872, 0.04115 µM	1.03
SW872, 0.1235 µM	1.03
SW872, 0.3704 µM	1.04
SW872, 1.111 µM	0.989
SW872, 3.333 µM	0.963
SW872, 10 µM	0.809
SW982, 0.00017 µM	0.999
SW982, 0.00051 µM	0.996
SW982, 0.00152 µM	1
SW982, 0.00457 µM	0.994
SW982, 0.01372 µM	0.975
SW982, 0.04115 µM	0.965
SW982, 0.1235 µM	1
SW982, 0.3704 µM	0.961
SW982, 1.111 µM	0.87
SW982, 3.333 µM	0.823
SW982, 10 µM	0.0461
SW1353, 0.00017 µM	0.995
SW1353, 0.00051 µM	1.07
SW1353, 0.00152 µM	1.02
SW1353, 0.00457 µM	1.04
SW1353, 0.01372 µM	1.02
SW1353, 0.04115 µM	1.01
SW1353, 0.1235 µM	1.01
SW1353, 0.3704 µM	0.999
SW1353, 1.111 µM	0.958
SW1353, 3.333 µM	0.947
SW1353, 10 µM	0.57
VA-ES-BJ, 0.00017 µM	1.04
VA-ES-BJ, 0.00051 µM	1.06
VA-ES-BJ, 0.00152 µM	1.04
VA-ES-BJ, 0.00457 µM	1.06
VA-ES-BJ, 0.01372 µM	1.05
VA-ES-BJ, 0.04115 µM	1.045
VA-ES-BJ, 0.1235 µM	1.05
VA-ES-BJ, 0.3704 µM	1.03
VA-ES-BJ, 1.111 µM	0.993
VA-ES-BJ, 3.333 µM	0.994
VA-ES-BJ, 10 µM	0.803

Cc1[nH]c(/C=C2\C(=O)Nc3ccccc32)c(C)c1CCC(=O)O [Orantinib]
Settings	relative viability
A204, 0.00017 µM	1.07
A204, 0.00051 µM	1.12
A204, 0.00152 µM	1.12
A204, 0.00457 µM	1.09
A204, 0.01372 µM	1.14
A204, 0.04115 µM	1.086
A204, 0.1235 µM	1.13
A204, 0.3704 µM	1.05
A204, 1.111 µM	1.03
A204, 3.333 µM	0.976
A204, 10 µM	0.881
G401, 0.00017 µM	1.07
G401, 0.00051 µM	1.11
G401, 0.00152 µM	1.07
G401, 0.00457 µM	1.08
G401, 0.01372 µM	1.07
G401, 0.04115 µM	1.04
G401, 0.1235 µM	1.057
G401, 0.3704 µM	1.06
G401, 1.111 µM	1.05
G401, 3.333 µM	1.058
G401, 10 µM	0.966
HS729, 0.00017 µM	1.07
HS729, 0.00051 µM	1.09
HS729, 0.00152 µM	1.08
HS729, 0.00457 µM	1.06
HS729, 0.01372 µM	1.04
HS729, 0.04115 µM	1.04
HS729, 0.1235 µM	0.997
HS729, 0.3704 µM	0.966
HS729, 1.111 µM	0.923
HS729, 3.333 µM	0.923
HS729, 10 µM	0.889
KHOS-240S, 0.00017 µM	1.04
KHOS-240S, 0.00051 µM	1.07
KHOS-240S, 0.00152 µM	1.087
KHOS-240S, 0.00457 µM	1.06
KHOS-240S, 0.01372 µM	1.05
KHOS-240S, 0.04115 µM	1.065
KHOS-240S, 0.1235 µM	1.08
KHOS-240S, 0.3704 µM	1.09
KHOS-240S, 1.111 µM	1.03
KHOS-240S, 3.333 µM	1.06
KHOS-240S, 10 µM	0.963
MES-SA, 0.00017 µM	1
MES-SA, 0.00051 µM	0.989
MES-SA, 0.00152 µM	0.975
MES-SA, 0.00457 µM	0.968
MES-SA, 0.01372 µM	0.951
MES-SA, 0.04115 µM	0.948
MES-SA, 0.1235 µM	0.948
MES-SA, 0.3704 µM	0.953
MES-SA, 1.111 µM	0.941
MES-SA, 3.333 µM	0.941
MES-SA, 10 µM	0.93
RD, 0.00017 µM	1.05
RD, 0.00051 µM	1.08
RD, 0.00152 µM	1.1
RD, 0.00457 µM	1.12
RD, 0.01372 µM	1.11
RD, 0.04115 µM	1.09
RD, 0.1235 µM	1.12
RD, 0.3704 µM	1.11
RD, 1.111 µM	1.11
RD, 3.333 µM	1.07
RD, 10 µM	1.06
SK-ES-1, 0.00017 µM	1.05
SK-ES-1, 0.00051 µM	1.06
SK-ES-1, 0.00152 µM	1.06
SK-ES-1, 0.00457 µM	1.04
SK-ES-1, 0.01372 µM	1.04
SK-ES-1, 0.04115 µM	1.06
SK-ES-1, 0.1235 µM	1.02
SK-ES-1, 0.3704 µM	1.06
SK-ES-1, 1.111 µM	0.999
SK-ES-1, 3.333 µM	0.982
SK-ES-1, 10 µM	0.998
SK-LMS-1, 0.00017 µM	1.06
SK-LMS-1, 0.00051 µM	1.072
SK-LMS-1, 0.00152 µM	1.06
SK-LMS-1, 0.00457 µM	1.04
SK-LMS-1, 0.01372 µM	1.05
SK-LMS-1, 0.04115 µM	1.07
SK-LMS-1, 0.1235 µM	1.04
SK-LMS-1, 0.3704 µM	1.032
SK-LMS-1, 1.111 µM	0.994
SK-LMS-1, 3.333 µM	0.971
SK-LMS-1, 10 µM	0.8874
SW872, 0.00017 µM	1.1
SW872, 0.00051 µM	1.12
SW872, 0.00152 µM	1.09
SW872, 0.00457 µM	1.1
SW872, 0.01372 µM	1.09
SW872, 0.04115 µM	1.08
SW872, 0.1235 µM	1.06
SW872, 0.3704 µM	1.04
SW872, 1.111 µM	1.08
SW872, 3.333 µM	1.05
SW872, 10 µM	1.013
SW982, 0.00017 µM	1.06
SW982, 0.00051 µM	1.11
SW982, 0.00152 µM	1.1
SW982, 0.00457 µM	1.1
SW982, 0.01372 µM	1.09
SW982, 0.04115 µM	1.1
SW982, 0.1235 µM	1.08
SW982, 0.3704 µM	1.044
SW982, 1.111 µM	1.01
SW982, 3.333 µM	0.935
SW982, 10 µM	0.931
SW1353, 0.00017 µM	1.08
SW1353, 0.00051 µM	1.06
SW1353, 0.00152 µM	1.087
SW1353, 0.00457 µM	1.08
SW1353, 0.01372 µM	1.05
SW1353, 0.04115 µM	1.07
SW1353, 0.1235 µM	1.04
SW1353, 0.3704 µM	1.026
SW1353, 1.111 µM	1
SW1353, 3.333 µM	0.963
SW1353, 10 µM	0.951
VA-ES-BJ, 0.00017 µM	1.11
VA-ES-BJ, 0.00051 µM	1.1
VA-ES-BJ, 0.00152 µM	1.116
VA-ES-BJ, 0.00457 µM	1.096
VA-ES-BJ, 0.01372 µM	1.06
VA-ES-BJ, 0.04115 µM	1.053
VA-ES-BJ, 0.1235 µM	1.1
VA-ES-BJ, 0.3704 µM	1.07
VA-ES-BJ, 1.111 µM	1.028
VA-ES-BJ, 3.333 µM	1.05
VA-ES-BJ, 10 µM	0.998

Reference: the supplement of paper PMC10883282
